In brackets after ≈: the same amount, converted by molar mass.
Columns and labels:
Plasmodium falciparum [1] = experiment: Antimalarial activity against chloroquine-resistant Plasmodium falciparum FcB1 in human erythrocytes after 48 hrs by [G-3H]hypoxanthine uptake; assay type: functional, organism-based; conditions: FcB1, 48 h
[2] = Toxicity against Artemia salina; assay type: organism-based; conditions: in vivo
Plasmodium falciparum [3] = experiment: Antimalarial activity against chloroquine-sensitive Plasmodium falciparum F32 in human erythrocytes after 48 hrs by [G-3H]hypoxanthine uptake; assay type: functional, organism-based; conditions: F32, 48 h
KB = experiment: Cytotoxicity against human KB cells by neutral red assay; assay type: functional, cell-based
Plasmodium falciparum [4] = experiment: Antimalarial activity against chloroquine-resistant Plasmodium falciparum PFB in human erythrocytes after 48 hrs by [G-3H]hypoxanthine uptake; assay type: functional, organism-based
Staphylococcus aureus = experiment: Antibacterial activity against Staphylococcus aureus at 1 ug/disk after 24 hrs by paper disk method; assay type: functional; conditions: read-out: IZ
Candida tropicalis = experiment: Antifungal activity against Candida tropicalis at 50 ug/disk after 48 hrs by paper disk method; assay type: functional; conditions: read-out: IZ

| Compound | IC50 (Plasmodium falciparum [1]) [µg/mL] | LC50 [2] [µg/mL] | IC50 (Plasmodium falciparum [3]) [µg/mL] | IC50 (KB) [µg/mL] | IC50 (Plasmodium falciparum [4]) [µg/mL] | zone of inhibition at 1 µg/disc (Staphylococcus aureus) [mm] | zone of inhibition at 50 µg/disc (Candida tropicalis) [mm] |
| --- | --- | --- | --- | --- | --- | --- | --- |
| CC1(C)CCC[C@]2(C)[C@H]3C=C4C=C(O)C(=O)C=C4O[C@@]3(C)CC[C@@H]12 [PUUPEHENONE] | 2.1 (≈ 6.39 µM) | 20 (≈ 60.9 µM) | 0.6 (≈ 1.83 µM) | 0.5 (≈ 1.52 µM) | 1.5 (≈ 4.57 µM) |  |  |
| CO[C@@H]1c2cc(O)c(O)cc2O[C@@]2(C)CC[C@H]3C(C)(C)CCC[C@]3(C)[C@@H]12 | 1.4 (≈ 3.88 µM) |  | 0.4 (≈ 1.11 µM) | 6 (≈ 16.6 µM) | 1.2 (≈ 3.33 µM) | 7 | 9 |
| CO[C@@H]1c2cc(OC(C)=O)c(OC(C)=O)cc2O[C@@]2(C)CC[C@H]3C(C)(C)CCC[C@]3(C)[C@@H]12 | 1.4 (≈ 3.15 µM) |  | 0.6 (≈ 1.35 µM) |  | 1.2 (≈ 2.7 µM) |  |  |

Source: ChEMBL document CHEMBL1144113, “Methanol adduct of puupehenone, a biologically active derivative from the marine sponge Hyrtios species” (J Nat Prod, 1999)
